{"source": "patent US20060025328A1", "about": "“Compositions suitable for controlled release of the hormone GnRH and its analogs” (priority 1997, published 2006)", "test_system": "LH", "experiment": "LH concentrations in synchronized dairy heifers, Example 6", "assay_type": "in vivo", "settings": "GnRH (100 μg) positive control", "description": "Experimental formulations were prepared by weighing and mixing SAIB, solvent and deslorelin acetate (DA) to give a final concentration of 25 μg/ml. The SAIB: diluting solvent composition was:SAIB/propylene carbonate 70:30 w/w). Experimental DA Treatments were sterilized using gamma radiation. 30 healthy cyclic dairy heifers weighing about 750-800 lbs (340-364 kg) were used. This study was designed as a parallel group design. All heifers were synchronized using pretreatment with 100 μg GnRH (Cystorellin, Merial, Ltd., Islin, NJ) on day -7 followed by 25 mg PGF2α (Lutalyse Pharmacia-Upjohn Co. Kalamazoo, Mich.) treatment one week later. Forty eight hours after PGF2α treatment heifers received saline (negative controls), Cystorellin ([…]; positive controls) or Deslorelin-SABER (DA-slow delivery preparation; at 12.5, 25, 50 or 100 μg intra-muscular). Blood samples were collected by veni-puncture through shaved and aseptic-swabbed sites at -48, 0, 0.5, 1, 2, 4, 6, 12, 18, 24, 36, and 48 hours after treatment for LH analysis. […] were randomly assigned to one of 6 blinded treatment groups (n=5/group) to avoid interpretation bias."}
{"substance": "GnRH: GnRH (Cystorellin, Merial, Ltd.), positive control (QHWSYGLRPG; Gonadoliberin-1; UniProt P01148 24-33, looked up)", "values": [{"measurement": "LH concentration at peak (average)", "value": 22.3, "unit": "ng/mL"}, {"measurement": "time of peak LH post-treatment", "value": 1, "unit": "h"}]}
